These results are taken from patent publication US20260217708A1, “FUSED BENZAZEPINE DERIVATIVES FOR USE IN THE TREATMENT OF CANCER AND EPILEPSY” (UCB BIOPHARMA SRL, priority 2023, published 2026).

SMILES strings stand for the structures.

Assay [1] concerns the target T1, system Xc^− (Homo sapiens, UniProt Q9UPY5).
T1 sequence (Q9UPY5 1-501): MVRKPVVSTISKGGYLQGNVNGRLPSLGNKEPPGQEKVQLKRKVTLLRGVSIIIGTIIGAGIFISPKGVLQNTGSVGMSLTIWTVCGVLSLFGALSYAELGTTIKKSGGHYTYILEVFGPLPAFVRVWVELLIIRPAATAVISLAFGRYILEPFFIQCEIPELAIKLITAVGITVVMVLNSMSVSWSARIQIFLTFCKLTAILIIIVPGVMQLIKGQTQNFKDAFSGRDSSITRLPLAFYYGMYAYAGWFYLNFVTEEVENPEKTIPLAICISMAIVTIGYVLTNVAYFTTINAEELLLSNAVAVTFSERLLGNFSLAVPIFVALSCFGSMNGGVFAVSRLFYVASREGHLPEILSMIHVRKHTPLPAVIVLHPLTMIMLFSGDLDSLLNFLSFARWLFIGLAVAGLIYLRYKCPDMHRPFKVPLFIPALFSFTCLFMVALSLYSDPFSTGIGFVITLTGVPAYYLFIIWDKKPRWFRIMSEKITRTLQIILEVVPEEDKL
T1 sequence (P08195 1-529 partner): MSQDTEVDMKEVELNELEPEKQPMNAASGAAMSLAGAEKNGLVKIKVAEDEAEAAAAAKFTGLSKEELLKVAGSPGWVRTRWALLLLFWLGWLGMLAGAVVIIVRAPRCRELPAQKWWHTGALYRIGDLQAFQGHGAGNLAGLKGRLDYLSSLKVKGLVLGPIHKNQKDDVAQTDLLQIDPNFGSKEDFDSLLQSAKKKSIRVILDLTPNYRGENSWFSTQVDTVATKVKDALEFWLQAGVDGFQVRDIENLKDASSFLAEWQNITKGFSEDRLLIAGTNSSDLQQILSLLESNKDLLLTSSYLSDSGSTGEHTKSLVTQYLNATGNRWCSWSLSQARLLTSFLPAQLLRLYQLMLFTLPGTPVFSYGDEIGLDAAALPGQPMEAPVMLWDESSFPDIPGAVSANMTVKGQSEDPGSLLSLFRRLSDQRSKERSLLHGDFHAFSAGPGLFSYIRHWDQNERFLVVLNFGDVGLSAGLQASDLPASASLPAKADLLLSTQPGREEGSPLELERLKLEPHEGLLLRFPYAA
Description: Cystine-induced glutamate release assay. It counts as cell-based. The settings on record: H4 cells, sodium-free HEPES buffer, 50 μM L-Cystine, 2 hours, Amplex Red glutamate readout; for IC50: read-out: pIC50 Cystine-induced glutamate release assay (converted). Details: endogenous in cells; host or cells: H4 cells. From the text: (§1) The effect of compounds of Formula (I) on the system Xc^− functionality was examined in two independent cell assays: (i) measurement of cystine-induced glutamate release; and (ii) measurement of [^14C]L-Cystine uptake.
(§2) As described above, System Xc^−, also known as the cystine/glutamate antiporter, is an amino acid transporter that mediates the extrusion of intracellular L-glutamate outside the cell and the uptake of extracellular L-cystine into the cell.
(§3) By measuring respectively, the concentration of glutamate released outside the cell and the L-cystine uptaken in the cell, with increasing concentrations of compounds of formula (I) according to the present invention, the efficacy of said compounds to inhibit the System Xc^− function can be evaluated.
(§4) The efficacy of the compounds to inhibit system Xc^− is represented by measuring the IC50 which corresponds to the concentration of compound necessary to inhibit 50% of the signals from the two control groups; DMSO 1% and Erastin 50 μM in the respective assays. pIC50 values correspond to −log of the IC50 in Molar.
Measurement of cystine-induced glutamate release indicates levels of glutamate (outside of the cell) that are dependent on system Xc^− antiporter function. Upon the addition of L-Cystine to H4 cells, intracellular glutamate is counter-transported and exported in the supernatant.
In this assay, the medium is devoid of sodium to prevent the transport of glutamate by sodium-dependent excitatory amino acid transporters (EAATs). H4 cells were plated on 384-well culture plate at 1×10^4 cells/well in Dulbecco's Modified Eagle Medium (DMEM) with L-glutamine, penicillin/streptomycin and 10% fetal bovine serum (all from ThermoFisher Scientific) and incubated in a humidified CO2 incubator at 37° C. After 2 days, cells were washed 4 times with prewarmed sodium-free HEPES buffer (contents in mM: HEPES 10, KCl 5.4, CaCl2 2.5, MgCl2 1, KH2PO4 0.4, D-Glucose 5, Choline chloride 140), pH 7.4. Glutamate release was induced by addition of 50 μM of L-Cystine (Sigma-Aldrich), together with a test compound of Formula (I) at 1% final DMSO concentration. After 2 hours of incubation in the culture incubator, supernatants were transferred to a low-binding polypropylene 384-well plate to determine L-glutamate concentration using Amplex™ Red Glutamic Acid Assay Kit (ThermoFisher Scientific). Briefly, 10 μL of Amplex™ Red working solution was added to 10 μL of the supernatant, then the mixture was incubated for 30 min at 37° C. Fluorescence intensity was measured by EnVision microplate reader (PerkinElmer).

Assay [2] deals with T1, system Xc^−. Nature of the assay: [^14C]L-Cystine uptake assay. It counts as cell-based. Also noted: endogenous in cells; host or cells: H4 cells. Particulars: H4 cells, sodium-free HEPES buffer, 0.5 μM L-[14C]Cystine and 4.5 μM L-Cystine, 1 hour at 37° C.; for IC50: read-out: pIC50 [^14C] L-Cystine uptake assay (converted).
From the text: as §1, §2, §3, §4
In this assay, the medium is devoid of sodium to prevent the transport of glutamate by sodium-dependent excitatory amino acid transporters (EAATs). H4 cells were plated on a 96-well CytoStar-T scintillating microplate (PerkinElmer) at 5×10^4 cells/well in the medium described above. After 1 day, cells were washed one time with the sodium-free HEPES buffer and preincubated with test compounds of Formula (I) (1% final DMSO) for 15 min. Uptake was initiated by adding 0.5 μM L-[1,2, 1′,2′-^14C]Cystine (0.02 mCi/mL, PerkinElmer, Waltham, US) and 4.5 μM L-Cystine (Sigma-Aldrich). After 1 hour at 37° C., plates were counted in a MicroBeta^2 microplate counter (PerkinElmer).

With `Cc1cc2c(c(C(F)F)n1)-c1ccccc1CC(=O)N2CC(=O)Nc1ccc(C(F)(F)F)cc1` (single isomer, unassigned) [#194, Atropisomer aR or aS of 2-[1-(difluoromethyl)-3-methyl-6-oxo-7H-pyrido[4,3-d][3]benzazepin-5-yl]-N-[4-(trifluoromethyl)phenyl]acetamide], the “pIC50 Cystine-induced glutamate release assay” value at system Xc^− [1] is “C (about 7.40 < pIC50 ≤ about 7.80)”. Moreover, the “pIC50 [^14C] L-Cystine uptake assay” value at system Xc^− [2] was “D (plC50 > about 7.80)”.

Regarding `Cc1cc2c(c(F)n1)-c1cccnc1[C@@H](F)C(=O)N2CC(=O)Nc1ccc(C(F)(F)F)cc1` (single isomer, unassigned) [#195, Enantiomer (10R) or (10S) of 2-(3,10-difluoro-5-methyl-9-oxo-4,8,12-triazatricyclo[9.4.0.0^2,7]pentadeca-1(11),2(7),3,5,12,14-hexaen-8-yl)-N-[4-(trifluoromethyl)phenyl]acetamide], the IC50 at system Xc^− [1] and on system Xc^− [2] was below 15.8 nM each time.

For the compound `Cc1cc2c(c(Cl)n1)-c1cccnc1[C@@H](C)C(=O)N2CC(=O)Nc1ccc(C(F)(F)F)cc1` (single isomer, unassigned) [#197, Enantiomer (10R) or (10S) of 2-[3-chloro-5,10-dimethyl-9-oxo-4,8,12-triazatricyclo[9.4.0.0^2,7]pentadeca-1(11),2,4,6,12,14-hexaen-8-yl]-N-[4-(trifluoromethyl)phenyl]acetamide], the IC50 at system Xc^− [1] and on system Xc^− [2] was below 15.8 nM each time.

On to `Cc1cc2c(c(F)n1)-c1ccnn1[C@@H](C)C(=O)N2CC(=O)Nc1ccc(C(F)(F)F)cc1` (single isomer, unassigned) [#198, Enantiomer (7R) or (7S) of 2-[14-fluoro-7,12-dimethyl-8-oxo-5,6,9,13-tetrazatricyclo[8.4.0.0^2,6]tetradeca-1(10),2,4,11,13-pentaen-9-yl]-N-[4-(trifluoromethyl)phenyl]acetamide], for which the IC50 at system Xc^− [1] and at system Xc^− [2] was 39.8 to 100 nM in each case.

For the compound `CO[C@H]1C(=O)N(CC(=O)Nc2ccc(C(F)(F)F)cc2)c2cc(C)nc(Cl)c2-c2ccccc21` (single isomer, unassigned) [#199, Entnaiomer (7R) or (7S) of 2-[1-chloro-7-methoxy-3-methyl-6-oxo-7H-pyrido[4,3-d][3]benzazepin-5-yl]-N-[4-(trifluoromethyl)phenyl]acetamide], the figures for the IC50 on system Xc^− [1] and on system Xc^− [2] were 15.8 to 39.8 nM and below 15.8 nM, respectively.

Take `Cc1cc2c(c(F)n1)-c1cccnc1[C@@H](C)C(=O)N2CC(=O)Nc1ccc(Cl)c(F)c1` (single isomer, unassigned) [#200, Enantiomer (10R) or (10S) of N-(4-chloro-3-fluoro-phenyl)-2-[3-fluoro-5,10-dimethyl-9-oxo-4,8,12-triazatricyclo[9.4.0.0^2,7]pentadeca-1(11),2(7),3,5,12,14-hexaen-8-yl]acetamide]: the values for the IC50 at system Xc^− [1] and on system Xc^− [2] were 15.8 to 39.8 nM and below 15.8 nM, respectively.

As to `Cc1cc2c(cn1)-c1cccnc1[C@@H](C)C(=O)N2CC(=O)Nc1ccc(C(F)(F)F)cc1` (single isomer, unassigned) [#201, Enantiomer (10R) or (10S) of 2-[5,10-dimethyl-9-oxo-4,8,12-triazatricyclo[9.4.0.0^2,7]pentadeca-1(11),2(7),3,5,12,14-hexaen-8-yl]-N-[4-(trifluoromethyl)phenyl]acetamide], the IC50 at system Xc^− [1] was 15.8 to 39.8 nM; at system Xc^− [2] it was below 15.8 nM.

For the compound `Cc1cc2c(c(F)n1)-c1cncnc1[C@@H](C)C(=O)N2CC(=O)Nc1ccc(C(F)(F)F)cc1` (single isomer, unassigned) [#202, Enantiomer (8R) or (8S) of 2-[15-fluoro-8,13-dimethyl-9-oxo-4,6,10,14-tetrazatricyclo[9.4.0.0^2,7]pentadeca-1(15),2(7),3,5,11,13-hexaen-10-yl]-N-[4-(trifluoromethyl)phenyl]acetamide], the results for the IC50 on system Xc^− [1] and at system Xc^− [2] were 39.8 to 100 nM and 15.8 to 39.8 nM, respectively.

Take `[2H]C([2H])([2H])[C@H]1C(=O)N(CC(=O)Nc2ccc(C(F)(F)F)cc2)c2cc(C)nc(F)c2-c2cccnc21` (single isomer, unassigned) [#203, Enantiomer (10R) or (10S) of 2-[3-fluoro-5-methyl-9-oxo-10-(trideuteriomethyl)-4,8,12-triazatricyclo[9.4.0.0^2,7]pentadeca-1(15),2(7),3,5,11,13-hexaen-8-yl]-N-[4-(trifluoromethyl)phenyl]acetamide]: the IC50 is 15.8 to 39.8 nM on system Xc^− [1] and below 15.8 nM on system Xc^− [2].

Take `Cc1cc2c(c(F)n1)-c1ccc(C)nc1[C@@H](C)C(=O)N2CC(=O)Nc1ccc(C(F)(F)F)cc1` (single isomer, unassigned) [#204, Enantiomer (10R) or (10S) of 2-[3-fluoro-5,10,13-trimethyl-9-oxo-4,8,12-triazatricyclo[9.4.0.0^2,7]pentadeca-1(11),2(7),3,5,12,14-hexaen-8-yl]-N-[4-(trifluoromethyl)phenyl]acetamide]: the IC50 on system Xc^− [1] is 39.8 to 100 nM; on system Xc^− [2] it was below 15.8 nM.

Regarding `Cc1cc2c(c(=O)[nH]1)-c1ccccc1[C@@H](C)C(=O)N2CC(=O)Nc1ccc(C(F)(F)F)cc1` (single isomer, unassigned) [#205, Entnaiomer (7R) or (7S) of 2-[3,7-dimethyl-1,6-dioxo-2,7-dihydropyrido[4,3-d][3]benzazepin-5-yl]-N-[4-(trifluoromethyl)phenyl]acetamide], the results for the IC50 at system Xc^− [1] and on system Xc^− [2] were 15.8 to 39.8 nM and below 15.8 nM, respectively.

Take `Cc1cc2c(c(F)n1)-c1cccnc1[C@@H](CO)C(=O)N2CC(=O)Nc1ccc(C(F)(F)F)cc1` (single isomer, unassigned) [#206, Enantiomer (10S) or (10R) of 2-[(3-fluoro-10-(hydroxymethyl)-5-methyl-9-oxo-4,8,12-triazatricyclo[9.4.0.0^2,7]pentadeca-1(11),2(7),3,5,12,14-hexaen-8-yl]-N-[4-(trifluoromethyl)phenyl]acetamide]: the values for the IC50 at system Xc^− [1] and on system Xc^− [2] were 39.8 to 100 nM and below 15.8 nM, respectively.
